Results published in US9371324B2, “Substituted pyrido[3′,4′:4,5]pyrrolo[1,2,3-de]quinoxalines for the treatment of nervous system disorders” (INTRA-CELLULAR THERAPIES, INC., priority 2010, dated 2016).
Like-named read-outs stand apart in the source and are kept apart here.

Columns and labels:
[1] = Single dose oral bioavailability and pharmacokinetic study in Sprague Dawley rats; format: in vivo, Sprague Dawley rat; conditions: for AUC(0-t) / Cmax / Tmax / half-life: Sprague Dawley (Crl:CD(SD)BR), rat, plasma, mean, after single oral 30 mg/kg of Example 1, label = analyte; for half-life: read-out: t½ (converted); for Course of plasma concentration over time: rats, after oral Example 1, 30 mg/kg, over 8 hours
Method: Animals are Used for the Study:
• Strain/Species: Sprague Dawley (Crl:CD®(SD)BR) Rat • Sex: Male and Female • Age at Receipt: 7-8 weeks • Weight Range: 225-300 g • Number of Animals on Study: 3 Males and 3 Females Preparation of Dosage Formulation
The suspension is prepared by placing the required amount of methylcellulose in deionized water in a glass container. The suspension are kept stirring with a magnetic stirrer until completion of daily dosing. The dose suspensions are prepared on the day of dosing for each test article group.
A total of 3 male and 3 female rats are dosed at 30 mg/kg. Blood samples are collected at 0.30 min, 1, 4 and 8 h after dosing. Plasma samples are analyzed to determine plasma concentrations of the Compound of Example 1, the Compound of Formula Q wherein X is —N(CH3)— and Y is —C(═O), and the Compound of Formula Q wherein X is —N(H)— and Y is —C(═O). The pharmacokinetic profile is determined using WinNonlin.
Animals are anesthetized with isoflurane, and whole blood (˜0.5 mL/time point) is collected from the orbital sinus utilizing a glass capillary tube on the first day of treatment at the following times: 0.30 min, 1, 4 and 8 h after dosing. Whole blood (˜0.5 mL) is collected into chilled plastic tubes containing sodium heparin as supplied by the manufacturer. The blood collection tubes are mixed several times by manual inversion or gentle vortexing and stored on wet ice until centrifugation. The blood is centrifuged (˜2700 g, ˜10 min, ˜5° C.). Plasma is transferred with disposable plastic pipettes to plastic vials and stored at approximately −70° C. until analyzed.

[2] = Hydrolysis of Example 4 in EDTA-containing rat whole blood; format: in vitro ADME; conditions: for Concentration: Example 4 incubated in rat whole blood at 37 degrees, HPLC-MS
dopamine receptors = test: Step-down latency test; format: in vivo; conditions: mice; oral; tests at 120, 180, 240 and 360 minutes; FIG. 2
Method: Drugs that antagonize dopamine receptors in the brain slow motor behavior and can induce a cataleptic state. This activity can be assessed in mice using a simple step down latency test. In this test, mice are held by the tail, and the rodents forepaws are placed on a rod and its hindpaws placed on the bench top. The time for forepaws to step down from the rod is then measured. A maximum of 2 min is allowed at which time the animal is taken away from the rod and returned to the home cage. The compound of Example 1 or haloperidol (used as a positive control) is administered orally 120 minutes before the first test. Step down latency tests are conducted at 120, 180, 240, and 360 minutes after the administration of the compound of Example 1 or haloperidol. After each test mice are returned to their cages. The results are show in FIG. 2.

[3] = target: T1, serotonin reuptake transport (SERT) (Homo sapiens, UniProt P31645); test: Inhibition of serotonin uptake in a human platelet assay using tritiated serotonin; format: cell-based
T1 construct: endogenous in cells; host or cells: human platelets

SERT = SERT (Homo sapiens, UniProt P31645); test: biochemical
5-HT2 receptor = test: DOI-induced head twitch test in mice; format: in vivo; conditions: oral
Excerpt: When administered to mice, it produces a behavioral profile associated with frequent head twitches. The frequency of these head twitches during a predetermined period of time can be taken as an estimate of 5-HT2 receptor agonism in the brain. Conversely, this behavioral assay can be used to determine 5-HT2 receptor antagonism in the brain by administering the DOI with or without an antagonist and recording the reduction in DOI-induced head twitches after the administration of the antagonist.
The method of Darmani et al., Pharmacol Biochem Behav. (1990) 36:901-906 (the contents of which are incorporated by reference in their entirety) is used with some modifications. (±)-DOI HCl is injected subcutaneously and the mice are immediately placed in a conventional plastic cage. The number of head twitches is counted during 6 min, beginning 1 min after DOI administration. The compound of Example 1 is administered orally 0.5 hr before the injection of DOI.

T1 sequence (P31645 whole entry): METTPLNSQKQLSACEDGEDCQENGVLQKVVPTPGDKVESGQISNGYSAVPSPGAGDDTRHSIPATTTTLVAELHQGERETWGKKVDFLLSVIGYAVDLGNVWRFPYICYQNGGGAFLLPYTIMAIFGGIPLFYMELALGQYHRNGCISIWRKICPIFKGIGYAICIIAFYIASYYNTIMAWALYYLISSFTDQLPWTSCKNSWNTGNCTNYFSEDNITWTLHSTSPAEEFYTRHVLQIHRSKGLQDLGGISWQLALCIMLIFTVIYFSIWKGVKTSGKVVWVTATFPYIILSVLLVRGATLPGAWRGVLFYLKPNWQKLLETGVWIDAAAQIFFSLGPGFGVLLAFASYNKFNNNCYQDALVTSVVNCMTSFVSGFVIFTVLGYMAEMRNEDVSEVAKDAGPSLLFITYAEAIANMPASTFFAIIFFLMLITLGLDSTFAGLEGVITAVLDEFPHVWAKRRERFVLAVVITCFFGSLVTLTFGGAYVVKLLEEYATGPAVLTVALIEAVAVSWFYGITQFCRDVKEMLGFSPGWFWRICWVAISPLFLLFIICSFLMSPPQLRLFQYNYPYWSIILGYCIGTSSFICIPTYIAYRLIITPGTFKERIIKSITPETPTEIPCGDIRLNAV
Chain of SERT (P31645 whole entry): as above

| Compound | AUC(0-t) ([1]; female rats) [ng·h/mL] | Cmax ([1]; female rats) [ng/mL] | Tmax ([1]; female rats) [h] | AUC(0-t) ([1]; male rats) [ng·h/mL] | Cmax ([1]; male rats) [ng/mL] | Tmax ([1]; male rats) [h] | half-life ([1]; male rats) [h] | Course of plasma concentration over time [1] | Concentration ([2]; 5 min) [µM] | Concentration ([2]; 10 min) [µM] | Concentration ([2]; 15 min) [µM] | Concentration ([2]; 30 min) [µM] | Concentration ([2]; 60 min) [µM] | Concentration ([2]; 90 min) [µM] | half-life ([1]; female rats) [h] | other results |
| --- | --- | --- | --- | --- | --- | --- | --- | --- | --- | --- | --- | --- | --- | --- | --- | --- |
| O=C(CCCN1CC[C@H]2[C@@H](C1)c1cccc3c1N2CCN3)c1ccc(F)cc1 | 89.7 | 12.8 | 5.33 | 37.4 | 5.84 | 1 | 17.8 | maintained over 8 hours |  |  |  |  |  |  |  |  |
| CCCC(=O)OC(CCCN1CC[C@H]2[C@@H](C1)c1cccc3c1N2CCN3C)c1ccc(F)cc1 (stereo partly shown) [Example 4] |  |  |  |  |  |  |  |  | 24.92 | 18.51 | 9.21 | 7.06 | 2.74 | 1.75 |  | Concentration ([2]; 0 min): 52.84 µM; Cleavage of the ester in blood ([2]; rat whole blood, during 90 minutes): steadily cleaved back to the compound of Example 1 |
| CN1CCN2c3c(cccc31)[C@@H]1CN(CCCC(O)c3ccc(F)cc3)CC[C@@H]12 (stereo partly shown) [Example 1] | 767 | 144 | 3.33 | 421 | 91.6 | 0.83 | 5.83 | generally decreases over time | 8.43 | 12.02 | 13.42 | 19.21 | 24.66 | 33.31 | 11.6 | Effect on step down latency (dopamine receptors): significantly and dose dependently increased step down latency; Ki [3]: 1500 nM; SERT inhibitory activity ([3]; imipramine as reference, compared with the corresponding keto compound of Formula Q): potent SERT inhibitory activity; Ki (SERT): 71 nM; IC50 for reducing DOI-induced head twitches (5-HT2 receptor; 0.5 hr before DOI, twitches counted during 6 min): 0.31 mg/kg; Effect on DOI-induced head twitches (5-HT2 receptor; before DOI, FIG. 1): significantly and dose dependently reduced head twitches |
| CN1CCN2c3c(cccc31)[C@@H]1CN(CCCC(=O)c3ccc(F)cc3)CC[C@@H]12 | 71 | 11.8 | 1 | 54.5 | 4.85 | 0.75 | 12.1 | maintained over 8 hours |  |  |  |  |  |  | 23.4 |  |
